Source: patent publication US12121614B2, “Delayed release composition for peroral administration” (VICORE PHARMA AB, priority 2020, dated 2024)

Test: Dissolution studies of C21 sodium salt in buffers of different pH
Assay type: physicochemical
Protocol: 50.7 mg of C21 sodium salt (Ardena, Riga, Latvia) was added to 900 mL of 0.09M carbonate buffer (pH 8.95) at a temperature of 37±3° C. with stirring. […] After 15 minutes of stirring, 2M acetic acid solution was added dropwise to provide a pH of 4.52. Evolution CO2 was noted. […] After additional stirring for a further 1.5 hours, 1M NaOH was added to increase pH to 6.8.
51.2 mg of C21 sodium salt was added to 900 mL of acetate buffer (pH 4.4) at the same temperature with stirring. […] After stirring for 1 hour, 1M NaOH solution was added dropwise to increase the pH to 7.2.
53.2 mg of C21 sodium salt was added to 900 mL 0.1M of HCl buffer (pH 1.0) at the same temperature with stirring. […] After 20 minutes of stirring, 1M NaOH solution was added dropwise to increase the pH to 4.5.
51.0 mg of C21 sodium salt was added to 900 mL of 0.1M citrate buffer (pH 4.42) at the same temperature with stirring. The added compound formed a thin slurry. It seemed that nothing had dissolved.
50.8 mg of C21 sodium salt was added to 900 mL of an acetate buffer (pH 4.49) at the same temperature. […] After stirring for 1 hour, a 1M NaOH solution was added dropwise to increase the pH to 6.8.

- dissolution behaviour on addition (A) (50.7 mg in 900 mL 0.09M carbonate buffer pH 8.95, 37±3° C., stirring): dissolved instantly
- dissolution behaviour on addition (C) (53.2 mg in 900 mL 0.1M HCl buffer pH 1.0, 37±3° C., stirring): dissolved instantly
- appearance after acidification (A) ((A) 2M acetic acid added to pH 4.52, after stirring for 1 hour): formation of small white particles
- precipitation after raising pH (C) ((C) after 20 minutes, 1M NaOH added to pH 4.5): no precipitation was observed
- appearance after further stirring (C) ((C) pH 4.5, after stirring for 2 hours): solution still was clear
- decomposition of C21 by UPLC (D) ((D) citrate buffer pH 4.42, end of the experiment (7 hours)): no decomposition
- appearance after further stirring (D) ((D) citrate buffer pH 4.42, stirring for 7 hours): no significant change in appearance
- decomposition of C21 by UPLC (E) ((E) acetate buffer pH 4.49 then pH 6.8, end of the experiment): no decomposition
- appearance after raising pH (E) ((E) after 1 hour, 1M NaOH added to pH 6.8): slurry became slightly thinner
- appearance after further stirring (E) ((E) pH 6.8, stirring another hour): no significant change in appearance
SMILES: CCCCOC(=O)[N-]S(=O)(=O)c1sc(CC(C)C)cc1-c1ccc(Cn2ccnc2)cc1.[Na+] [C21 sodium salt]
- dissolution behaviour on addition (E) (50.8 mg in 900 mL acetate buffer pH 4.49, 37±3° C.): formed a thin slurry which floated on the surface
- dissolution behaviour on addition (D) (51.0 mg in 900 mL 0.1M citrate buffer pH 4.42, 37±3° C., stirring): formed a thin slurry. It seemed that nothing had dissolved
- dissolution behaviour on addition (B) (51.2 mg in 900 mL acetate buffer pH 4.4, 37±3° C., stirring): formed a thin slurry which was floated on the surface top
- appearance after raising pH (A) ((A) 1M NaOH added to pH 6.8, stirring another 1.5 hours): no significant change in appearance (small white particles)
- appearance after raising pH (B) ((B) after 1 hour, 1M NaOH added to pH 7.2): slurry became thinner and pieces became smaller and goo-like
- appearance after further stirring (B) ((B) pH 7.2, stirring another 1.5 hours): no significant change in appearance (small goo-like particles)
